These results are taken from patent US20180214563A1, “IMMUNOSTIMULATORY NANOCARRIER” (University of Pittsburgh - Of the Commonwealth System of …, priority 2015, published 2018).

Structures are written as SMILES.

For the series, the system named is 4T1.2 cells. Nature of the series: In vitro cytotoxicity, MTT assay, 4T1.2. The series is classed as cell-based, mouse. The note with it: 72 h. As for the experimental part:
4T1.2 , PC3, Panc02, and B16 cells at 2000 cells/well were seeded in 96-well plates, respectively. […] After 3 days of incubation, 20 μL of 3-(4,5-dimethylthiazol-2-yl)-2,5-diphenyltetrazoliumbromide (MTT) in DPBS (5 mg/mL) was added to each well and cells were further incubated for 2 h. Medium was removed and MTT formazan crystals were solubilized by 100 μL of DMSO per well. Absorbance of each well was measured with a microplate reader at wavelength of 550 nm. Untreated wells were used as controls. Cell viability was calculated as [(ODtreated-ODblank)/(ODcontrol-ODblank)×100%].

With `CC(=O)O[C@H]1C(=O)[C@@]2(C)[C@H]([C@H](OC(=O)c3ccccc3)[C@]3(O)C[C@H](OC(=O)[C@H](O)[C@@H](NC(=O)c4ccccc4)c4ccccc4)C(C)=C1C3(C)C)[C@]1(OC(C)=O)CO[C@@H]1C[C@@H]2O` [PTX, paclitaxel], the “cytotoxicity (tumor cell growth inhibition)” value is given as “inhibited the tumor cell growth in a concentration-dependent manner”.
